“Also recorded” adds a separate entry of the source. Where no end group is shown, it is not given here.
What was measured:
[1] = DPPH free radical scavenging capacity (kit); settings: synthetic peptides, 1 mg/mL; comparison among the three peptides, in words
Description: (§1) Use a concentration of 1 mg/mL of the enzymatic hydrolysate to assess the free radical scavenging rate. DPPH and ABTS free radical scavenging capacity assays were conducted using kits from Grace Biotechnology Co., Ltd. (Suzhou, Jiangsu, China). The subsequent determination of the inhibitory rate of peptide tyrosinase synthesis and the antioxidant measurement methods refer to this step.

[2] = ABTS free radical scavenging capacity (kit); settings: synthetic peptides, 1 mg/mL; ranking among the three peptides (p < 0.05)
Description: as §1

[3] = molecular target: T1, Tyrosinase (Agaricus bisporus, UniProt C7FF04); assay: Tyrosinase inhibitory activity assay (mushroom tyrosinase, L-tyrosine substrate); format: biochemical; settings: 0.5 mg/mL L-tyrosine, PBS, 20 μL tyrosinase (500 U/mL), preincubation 37 °C 10 min, reaction 10 min at 37 °C; mean ± SD of at least three experiments
T1 construct: purchased Shanghai Yuanye Biotechnology Co., Ltd. (Shanghai, China)
Description: Tyrosinase (from Mushroom, 500 U/mg) and PBS buffer were purchased from Shanghai Yuanye Biotechnology Co., Ltd. (Shanghai, China). L-tyrosine was obtained from Shanghai Macklin Biochemical Technology Co., Ltd. (Shanghai, China).
A solution of L-tyrosine at a concentration of 0.5 mg/mL, along with the sample solution and PBS buffer, was sequentially introduced into a 96-well plate. The mixture was thoroughly homogenized and subsequently incubated at 37 °C for 10 min. Following this incubation, 20 μL of tyrosinase solution (500 U/mL) was added to each well, and the plate was promptly placed in an enzyme marker for a reaction period of (10 min ± 5 s) at 37 °C.

[4] = test system: B16F10 cells; assay: Cytotoxicity to B16F10 cells (CCK-8); format: cell-based, mouse; settings: 10–800 μg/mL
Description: B16F10 cells were purchased from Hunan FengHui Biotechnology Co., Ltd. (Changsha, Hunan, China). Cell cultures of B16F10, specifically from generations 10 to 25, were maintained in a medium consisting of DMEM supplemented with 10% fetal bovine serum and 1% antibiotic–antifungal solution, under conditions of 5% CO2 at 37 °C.
Cell viability was evaluated utilizing the Cell Counting Kit-8 (CCK-8) assay. During the logarithmic growth phase, 100 µL of cell suspension, containing 3000 cells per well, was transferred into 96-well plates. Following a 24 h incubation period at 37 °C, the supernatant was discarded. Wells containing 100 µL of medium were designated as blank controls. […]

[5] = test system: tyrosinase activity in B16F10 cells; assay: Intracellular tyrosinase activity in B16F10 cells; format: cell-based, mouse; settings: 50 μg/mL (highest treatment concentration; Kojic acid 50 μg/mL), 24 h, L-DOPA, 475 nm, vs control
Description: Cells in the logarithmic growth phase were cultured at a density of 4 × 10^5 cells per well in 6-well plates. Following a 24 h incubation period, the culture supernatant was discarded. Experimental groups were established, including a control group, a positive control group treated with Kojic acid at a concentration of 50 µg/mL [40], and peptide-treated groups at concentrations of 10, 25, and 50 µg/mL. After an additional 24 h of incubation, the cells were lysed, and the resulting cell lysates were subjected to centrifugation at 12,000 rpm for 10 min. The reaction mixture was prepared by combining 50 µL of the cell lysate supernatant, 50 µL of 1 mg/mL L-DOPA, and 50 µL of PBS buffer. This mixture was incubated at 37 °C for 1 h. Subsequently, the level of […] formation was quantified spectrophotometrically at a wavelength of 475 nm. The activity of tyrosinase was reported as a percentage relative to the blank control.

[6] = test system: melanin production in B16F10 cells; assay: Melanin content of B16F10 cells; format: cell-based, mouse; settings: 50 μg/mL (highest treatment concentration; Kojic acid 50 μg/mL), 48 h, absorbance 405 nm, vs control
Description: Cells in the logarithmic growth phase were cultured at a density of 4 × 10^5 cells per well in 6-well plates. Following a 24 h incubation period, the culture supernatant was discarded. Experimental groups were established, including a control group, a positive control group treated with Kojic acid at a concentration of 50 µg/mL [40], and peptide-treated groups at concentrations of 10, 25, and 50 µg/mL. After an additional 24 h of incubation, the cells were lysed, and the resulting cell lysates were subjected to centrifugation at 12,000 rpm for 10 min. The reaction mixture was prepared by combining 50 µL of the cell lysate supernatant, 50 µL of 1 mg/mL L-DOPA, and 50 µL of PBS buffer. This mixture was incubated at 37 °C for 1 h. Subsequently, the level of dopamine formation was quantified spectrophotometrically at a wavelength of 475 nm.
The cell culture stage for melanin content determination was as follows: The cells were washed twice with PBS buffer after 48 h of peptide treatment. Trypsin digestion was performed, and the cells were collected. […] Then, 200 µL of the supernatant was transferred to a 96-well plate, and the absorbance was measured at 405 nm. The melanin content was then expressed as a percentage of the control group.

[7] = test system: superoxide dismutase (SOD); assay: SOD activity in B16F10 cells; format: cell-based, mouse; settings: 50 μg/mL (highest treatment concentration; Kojic acid 50 μg/mL)
Description: (§2) Cell culture and treatment methods were the same as described in Section 3.10. The activities of catalase (CAT), glutathione peroxidase (GSH-Px), and superoxide dismutase (SOD) were determined using the assay kit from Nanjing Jianjian Bioengineering Research Institute (Nanjing, China).

[8] = test system: catalase (CAT); assay: CAT activity in B16F10 cells; format: cell-based, mouse; settings: 50 μg/mL (highest treatment concentration; Kojic acid 50 μg/mL)
Description: as §2

[9] = test system: glutathione peroxidase (GSH-Px); assay: GSH-Px activity in B16F10 cells; format: cell-based, mouse; settings: 50 μg/mL (highest treatment concentration; Kojic acid 50 μg/mL)
Description: as §2

T1 sequence (C7FF04 1-392): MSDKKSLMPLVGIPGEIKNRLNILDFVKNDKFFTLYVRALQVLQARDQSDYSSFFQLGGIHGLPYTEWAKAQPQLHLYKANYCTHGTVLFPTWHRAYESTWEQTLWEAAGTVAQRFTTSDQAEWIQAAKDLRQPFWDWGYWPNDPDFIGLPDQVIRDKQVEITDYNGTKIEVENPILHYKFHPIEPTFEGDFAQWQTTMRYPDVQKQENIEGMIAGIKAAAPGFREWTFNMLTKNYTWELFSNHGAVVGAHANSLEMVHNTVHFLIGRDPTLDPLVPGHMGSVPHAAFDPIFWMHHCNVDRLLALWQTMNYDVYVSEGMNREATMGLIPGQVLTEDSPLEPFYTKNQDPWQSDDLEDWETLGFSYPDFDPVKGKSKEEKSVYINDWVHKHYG

| Compound | DPPH radical scavenging effect [1] | ABTS radical scavenging ability (ranking) [2] | IC50 [3] [µM] | viability of B16F10 cells [4] [%] | cytotoxicity / viability vs control group ([4]; in words) | decrease of intracellular tyrosinase activity [5] [%] | decrease of melanin content [6] [%] | increase of SOD activity [7] [%] | increase of CAT activity [8] [%] | increase of GSH-Px activity [9] [%] |
| --- | --- | --- | --- | --- | --- | --- | --- | --- | --- | --- |
| YVPGHG [YVPGHG, Tyr-Val-Pro-Gly-His-Gly] | remained consistent at a concentration of 1 mg/mL (p > 0.05) | GYHFHSYP > YPNPY > YVPGHG (p < 0.05) | > 50000 | – | – | – | – | – | – | – |
| YPNPY [YPNPY, Tyr-Pro-Asn-Pro-Tyr] | – | – | 545 ± 28 | ~100 | no significant difference in the viability of B16F10 cells; also recorded: did not exhibit any cytotoxic effects | – | – | – | – | – |
| GYHFHSYP [GYHFHSYP, Gly-Tyr-His-Phe-His-Ser-Tyr-Pro] | remained consistent at a concentration of 1 mg/mL (p > 0.05) | GYHFHSYP > YPNPY > YVPGHG (p < 0.05) | > 5000 | – | – | – | – | – | – | – |
| O=c1cc(CO)occ1O [Kojic acid] | – | – | – | – | – | 16.64 | 17.39 | 68.81 | 32.04 | 25.56 |

— PMC11433014, “In Vitro In Silico Screening Strategy and Mechanism of Novel Tyrosinase Inhibitory Peptides from Nacre of Hyriopsis cumingii” (Marine Drugs, 2024)
